Test results taken from patent US11584747B2, “Substituted pyridopyrimidinonyl compounds useful as T cell activators” (BRISTOL-MYERS SQUIBB COMPANY, priority 2019, dated 2023).
Read-outs that look alike come from different tables or passages of the source.

Legend:
human DGKα = human DGKα (Homo sapiens (Human), UniProt P23743); assay: DGKα ADPGLO assay (detergent/lipid micelle substrate); format: biochemical
Method: DGK Alpha ADPGLO (Truncated) IC50 (uM)
The detergent/lipid micelle was prepared by combining 15 g phosphatidylserine (Avanti 840035P) and 1 g diacylglycerol (8008110) and dissolving into 150 mL chloroform in a 2 L round bottom flask. Chloroform was removed under high vacuum by rotary evaporation. […] The lipid/detergent solution was split into 5 mL aliquots and stored at −80° C.

human DGKζ = human DGKζ (Homo sapiens (Human), UniProt Q13574); assay: DGKζ LIPGLO assay (extruded liposome substrate, ADP-Glo luminescence); format: biochemical
[1] = truncated DGK alpha, read-out: DGK alpha ADPGLO (Truncated) IC50
[2] = liposome assay, read-out: DGK zeta LIPGLO IC50
[3] = ADPGLO assay, read-out: DGK alpha ADPGLO IC50
[4] = liposome (LIPGLO) assay, read-out: DGK zeta (liposome assay) IC50

Chain of human DGKζ (Q13574 other isoform, or with tags, fused parts or gaps): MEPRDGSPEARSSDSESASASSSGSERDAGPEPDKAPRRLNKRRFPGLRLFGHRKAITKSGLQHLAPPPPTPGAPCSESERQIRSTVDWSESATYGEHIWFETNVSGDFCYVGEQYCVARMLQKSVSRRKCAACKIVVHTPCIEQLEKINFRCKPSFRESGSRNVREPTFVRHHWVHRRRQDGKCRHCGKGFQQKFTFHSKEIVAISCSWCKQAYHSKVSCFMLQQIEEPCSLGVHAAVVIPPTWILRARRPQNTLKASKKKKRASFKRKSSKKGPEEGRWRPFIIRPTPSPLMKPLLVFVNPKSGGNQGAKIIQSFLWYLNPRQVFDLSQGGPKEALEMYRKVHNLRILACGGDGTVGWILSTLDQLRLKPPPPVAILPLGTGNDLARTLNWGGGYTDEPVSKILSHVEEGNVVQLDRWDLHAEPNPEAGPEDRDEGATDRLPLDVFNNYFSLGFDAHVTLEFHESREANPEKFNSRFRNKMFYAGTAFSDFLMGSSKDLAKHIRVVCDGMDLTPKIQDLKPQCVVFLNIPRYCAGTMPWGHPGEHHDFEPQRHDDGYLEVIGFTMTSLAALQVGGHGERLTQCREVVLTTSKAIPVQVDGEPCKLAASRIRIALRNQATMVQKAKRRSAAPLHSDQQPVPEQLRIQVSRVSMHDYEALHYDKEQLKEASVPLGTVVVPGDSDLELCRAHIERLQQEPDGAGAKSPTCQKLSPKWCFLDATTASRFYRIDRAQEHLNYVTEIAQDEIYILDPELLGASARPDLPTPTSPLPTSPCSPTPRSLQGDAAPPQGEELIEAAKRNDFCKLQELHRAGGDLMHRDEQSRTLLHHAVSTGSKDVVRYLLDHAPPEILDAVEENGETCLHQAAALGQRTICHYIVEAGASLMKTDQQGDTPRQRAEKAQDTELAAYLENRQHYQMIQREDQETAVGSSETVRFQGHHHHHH
Chain of human DGKα (P23743 whole entry, looked up, the tested form may be a part): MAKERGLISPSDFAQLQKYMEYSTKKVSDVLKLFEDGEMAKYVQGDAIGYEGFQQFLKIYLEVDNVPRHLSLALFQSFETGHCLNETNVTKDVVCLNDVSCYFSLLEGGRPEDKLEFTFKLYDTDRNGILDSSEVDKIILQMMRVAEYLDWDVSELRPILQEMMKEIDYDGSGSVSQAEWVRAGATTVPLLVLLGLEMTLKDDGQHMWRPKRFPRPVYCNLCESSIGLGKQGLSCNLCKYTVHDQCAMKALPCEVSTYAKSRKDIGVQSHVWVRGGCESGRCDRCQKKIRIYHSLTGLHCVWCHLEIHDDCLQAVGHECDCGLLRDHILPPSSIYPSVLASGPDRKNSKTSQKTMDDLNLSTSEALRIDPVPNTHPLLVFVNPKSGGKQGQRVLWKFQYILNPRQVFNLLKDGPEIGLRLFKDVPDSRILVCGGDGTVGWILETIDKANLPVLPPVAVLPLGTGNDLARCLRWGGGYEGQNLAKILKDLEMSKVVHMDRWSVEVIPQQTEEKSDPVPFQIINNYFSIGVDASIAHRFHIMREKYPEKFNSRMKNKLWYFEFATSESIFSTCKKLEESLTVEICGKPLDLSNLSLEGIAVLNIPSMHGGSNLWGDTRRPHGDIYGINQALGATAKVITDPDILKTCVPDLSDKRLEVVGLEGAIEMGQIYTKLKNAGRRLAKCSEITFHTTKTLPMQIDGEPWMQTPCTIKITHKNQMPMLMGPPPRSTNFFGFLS

SMILES	IC50 (human DGKα; [1]) [nM]	IC50 (human DGKζ; [2]) [nM]	IC50 (human DGKα; [3]) [nM]	IC50 (human DGKζ; [4]) [nM]
CCC(c1ccc(C2CC2)cc1)N1C[C@H](CC)N(c2nc(=O)n(C)c3ccc(C#N)nc23)C[C@H]1CC (stereo partly drawn) [Example 200, 4-((2S,5R)-4-(1-(4-cyclopropylphenyl)propyl)-2,5-diethylpiperazin-1-yl)-1-methyl-2-oxo-1,2-dihydropyrido[3,2-d]pyrimidine-6-carbonitrile]	12	13	–	–
CCC(C1CC(F)(F)C1)N1C[C@H](C)N(c2nc(=O)n(C)c3ccc(C#N)nc23)C[C@H]1C (stereo partly drawn) [Example 456, 4-((2S,5R)-4-(1-(3,3-difluorocyclobutyl)propyl)-2,5-dimethylpiperazin-1-yl)-1-methyl-2-oxo-1,2-dihydropyrido[3,2-d]pyrimidine-6-carbonitrile]	–	–	10200	12100
CCOC(=O)[C@H]1C[C@@H]1Oc1ccc(C(C)N2C[C@H](CC)N(c3nc(=O)n(C)c4ccc(C#N)nc34)C[C@H]2CC)cc1 (stereo partly drawn) [Example 259, ethyl (1S,2S)-2-(4-(1-((2R,5S)-4-(6-cyano-1-methyl-2-oxo-1,2-dihydropyrido[3,2-d]pyrimidin-4-yl)-2,5-diethylpiperazin-1-yl)ethyl)phenoxy)cyclopropane-1-carboxylate]	2170	1800	–	–
CC[C@@H]1CN(c2nc(=O)n(C)c3ccc(C#N)nc23)[C@@H](C)CN1C(c1nnc(C2CC2)o1)C(C)C (single isomer, unassigned) [Example 368]	–	–	1170	2250
CCC(C1CC1)N1C[C@H](C)N(c2nc(=O)n(C)c3ccc(C#N)nc23)C[C@H]1C (stereo partly drawn) [Example 454, 4-((2S,5R)-4-(1-cyclopropylpropyl)-2,5-dimethylpiperazin-1-yl)-1-methyl-2-oxo-1,2-dihydropyrido[3,2-d]pyrimidine-6-carbonitrile]	–	–	14200	28800
CCOc1ccc2c(n1)c(N1C[C@@H](CC)N(C(CC)c3ccc(C(F)(F)F)cc3)C[C@@H]1CC)nc(=O)n2C (stereo partly drawn) [Example 437, 4-((2S,5R)-2,5-diethyl-4-(1-(4-(trifluoromethyl)phenyl)propyl)piperazin-1-yl)-6-ethoxy-1-methylpyrido[3,2-d]pyrimidin-2(1H)-one]	–	–	250000	250000
CCC(C1CCC(F)(F)CC1)N1C[C@H](C)N(c2nc(=O)n(C)c3ccc(C#N)nc23)C[C@H]1C (stereo partly drawn) [Example 460, 4-((2S,5R)-4-(1-(4,4-difluorocyclohexyl)propyl)-2,5-dimethylpiperazin-1-yl)-1-methyl-2-oxo-1,2-dihydropyrido[3,2-d]pyrimidine-6-carbonitrile]	–	–	11600	12000
CCOc1ccc(CN2C[C@H](C)N(c3nc(=O)n(C)c4ccc(C#N)nc34)C[C@H]2CC)cc1 [Example 310, 4-((2S,5R)-4-(4-ethoxybenzyl)-5-ethyl-2-methylpiperazin-1-yl)-1-methyl-2-oxo-1,2-dihydropyrido[3,2-d]pyrimidine-6-carbonitrile]	–	–	77	280
CCC(c1ccc(OC2CC2)cc1)N1C[C@H](C)N(c2nc(=O)n(C)c3ccc(C#N)nc23)C[C@H]1CC (stereo partly drawn) [Example 312, 4-((2S,5R)-4-(1-(4-cyclopropoxyphenyl)propyl)-5-ethyl-2-methylpiperazin-1-yl)-1-methyl-2-oxo-1,2-dihydropyrido[3,2-d]pyrimidine-6-carbonitrile]	–	–	600	870
CC[C@@H]1CN(c2nc(=O)n(C)c3ccc(C#N)nc23)[C@@H](C)CN1C(C)c1ccc(CNC(=O)OC)cc1 (stereo partly drawn) [Example 360, Methyl (4-(1-((2R,5S)-4-(6-cyano-1-methyl-2-oxo-1,2-dihydropyrido[3,2-d]pyrimidin-4-yl)-2-ethyl-5-methylpiperazin-1-yl)ethyl)benzyl)carbamate]	–	–	150	660
CC[C@H]1CN(C(C)c2ccc(CN3CCN(C)C(=O)C3)cc2)[C@H](CC)CN1c1nc(=O)n(C)c2ccc(C#N)nc12 (stereo partly drawn) [Example 288, 4-((2S,5R)-2,5-diethyl-4-(1-(4-((4-methyl-3-oxopiperazin-1-yl)methyl)phenyl)ethyl)piperazin-1-yl)-1-methyl-2-oxo-1,2-dihydropyrido[3,2-d]pyrimidine-6-carbonitrile]	4110	31700	–	–
CC[C@@H]1CN(c2nc(=O)n(C)c3ccc(C#N)nc23)[C@@H](CC)CN1Cc1ccc(C2CC2)cc1F [Example 242, 4-((2S,5R)-4-(4-cyclopropyl-2-fluorobenzyl)-2,5-diethylpiperazin-1-yl)-1-methyl-2-oxo-1,2-dihydropyrido[3,2-d]pyrimidine-6-carbonitrile]	260	190	–	–
CC[C@@H]1CN(c2nc(=O)n(C)c3ccc(C#N)nc23)[C@@H](C)CN1C(C)c1ccc(CNC(=O)OC)cc1 (stereo partly drawn) [Example 359, Methyl (4-(1-((2R,5S)-4-(6-cyano-1-methyl-2-oxo-1,2-dihydropyrido[3,2-d]pyrimidin-4-yl)-2-ethyl-5-methylpiperazin-1-yl)ethyl)benzyl)carbamate]	–	–	24	220
CCOc1ccc(C(CC)N2C[C@H](C)N(c3nc(=O)n(C)c4ccc(C#N)nc34)C[C@H]2CC)cc1 (stereo partly drawn) [Example 307, 4-((2S,5R)-4-(1-(4-ethoxyphenyl)propyl)-5-ethyl-2-methylpiperazin-1-yl)-1-methyl-2-oxo-1,2-dihydropyrido[3,2-d]pyrimidine-6-carbonitrile]	–	–	140	770
[2H]C([2H])([2H])n1c(=O)nc(N2C[C@@H](CC)N(C(C)c3ccc(C(F)(F)F)cc3)C[C@@H]2C)c2nc(C#N)ccc21 (single isomer, unassigned) [Example 420]	–	–	90	760
CC[C@H]1CN(C(c2ccc(F)cc2)c2cccc(C(F)F)n2)[C@H](CC)CN1c1nc(=O)n(C)c2ccc(C#N)nc12 (stereo partly drawn) [Example 258, 4-((2S,5R)-4((6-(difluoromethyl)pyridin-2-yl)(4-fluorophenyl)methyl)-2,5-diethylpiperazin-1-yl)-1-methyl-2-oxo-1,2-dihydropyrido[3,2-d]pyrimidine-6-carbonitrile]	64	360	–	–
CC[C@H]1CN(C(C)c2ccc(CN3CCN(C)C(=O)C3)cc2)[C@H](CC)CN1c1nc(=O)n(C)c2ccc(C#N)nc12 (stereo partly drawn) [Example 287, 4-((2S,5R)-2,5-diethyl-4-(1-(4-((4-methyl-3-oxopiperazin-1-yl)methyl)phenyl)ethyl)piperazin-1-yl)-1-methyl-2-oxo-1,2-dihydropyrido[3,2-d]pyrimidine-6-carbonitrile]	210	500	–	–
CC[C@H]1CN(C(C)c2ccc3oc(C4CC4)nc3c2)[C@H](CC)CN1c1nc(=O)n(C)c2ccc(C#N)nc12 (stereo partly drawn) [Example 253, 4-((2S,5R)-4-(1-(2-cyclopropylbenzo[d]oxazol-5-yl)ethyl)-2,5-diethylpiperazin-1-yl)-1-methyl-2-oxo-1,2-dihydropyrido[3,2-d]pyrimidine-6-carbonitrile]	3800	97	–	–
CCC(C1CC1)N1C[C@H](C)N(c2nc(=O)n(C)c3ccc(C#N)nc23)C[C@H]1C (stereo partly drawn) [Example 453, 4-((2S,5R)-4-(1-cyclopropylpropyl)-2,5-dimethylpiperazin-1-yl)-1-methyl-2-oxo-1,2-dihydropyrido[3,2-d]pyrimidine-6-carbonitrile]	–	–	215000	79400
